In patent US8163756B2 (priority 2004, dated 2012):

Molecular target: B-Raf(V599E) kinase (Homo sapiens, UniProt P15056, V600E)
Assay: B-Raf(V599E) kinase assay B1 (construct 1, MEK1 substrate, coupled spectrophotometric)
Format: biochemical
Conditions: not given
Method: The test compounds were incubated with the reaction mixtureat 30° C. for 2 h. […] The reaction rate was calculated using the […] time frame. […] IC50 values were calculated from a series of percent inhibition values determined at a range of inhibitor concentrations using software routines as implemented in the GraphPad Prism software package.

B-Raf(V599E) kinase, sequence (P15056 with tags, fused parts or gaps V600E): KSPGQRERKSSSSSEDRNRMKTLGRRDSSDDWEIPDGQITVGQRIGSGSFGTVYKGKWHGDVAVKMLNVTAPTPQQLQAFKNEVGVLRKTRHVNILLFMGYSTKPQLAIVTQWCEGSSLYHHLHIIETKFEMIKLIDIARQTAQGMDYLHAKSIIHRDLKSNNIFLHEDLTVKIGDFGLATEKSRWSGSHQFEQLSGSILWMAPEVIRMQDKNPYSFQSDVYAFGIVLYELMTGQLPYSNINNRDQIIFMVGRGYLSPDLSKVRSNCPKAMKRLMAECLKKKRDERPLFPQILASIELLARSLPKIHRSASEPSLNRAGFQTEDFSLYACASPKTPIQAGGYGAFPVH

Question: CC(C)(C)c1cc(NC(=O)Nc2cccc(F)c2F)n(-c2ccc3c(c2)CCC(=O)N3)n1 [Example 320, 1-(3-t-butyl-1-(2-oxo-1,2,3,4-tetrahydro-quinolin-6-yl)-1H-pyrazol-5-yl)-3-(2,3-difluorophenyl)urea] was tested. Which IC50 did it give?
Answer: 4.6 nM

Question: With CC(C)(C)c1cc(NC(=O)Nc2ccc(F)cc2F)n(-c2ccc3c(c2)CCC(=O)N3)n1 [Example 321, 1-(3-t-butyl-1-(2-oxo-1,2,3,4-tetrahydro-quinolin-6-yl)-1H-pyrazol-5-yl)-3-(2,4-difluorophenyl)urea] as the molecule, how does the IC50 read?
Answer: 7.2 nM

Question: For CC(C)(C)c1cc(NC(=O)Nc2ccc(F)c(F)c2F)n(-c2ccc3c(c2)CCC(=O)N3)n1 [Example 322, 1-(3-t-butyl-1-(2-oxo-1,2,3,4-tetrahydro-quinolin-6-yl)-1H-pyrazol-5-yl)-3-(2,3,4-trifluorophenyl)urea], which IC50 is on record?
Answer: 4.1 nM

Question: CC(C)(C)c1cc(NC(=O)Nc2cc(F)c(F)cc2F)n(-c2ccc3c(c2)CCC(=O)N3)n1 [Example 323, 1-(3-t-butyl-1-(2-oxo-1,2,3,4-tetrahydro-quinolin-6-yl)-1H-pyrazol-5-yl)-3-(2,4,5-trifluorophenyl)urea] was tested. Which IC50 did it give?
Answer: 3.4 nM

Question: Which IC50 does the source give for CC(C)(C)c1cc(NC(=O)Nc2cc(F)c(F)c(F)c2)n(-c2ccc3c(c2)CCC(=O)N3)n1 [Example 324, 1-(3-t-butyl-1-(2-oxo-1,2,3,4-tetrahydro-quinolin-6-yl)-1H-pyrazol-5-yl)-3-(3,4,5-trifluorophenyl)urea] here?
Answer: 17 nM

Question: How did the IC50 turn out when CC(C)(C)c1cc(NC(=O)Nc2cccc(Oc3ccccc3)c2)n(-c2ccc3c(c2)CCC(=O)N3)n1 [Example 325, 1-(3-t-butyl-1-(2-oxo-1,2,3,4-tetrahydro-quinolin-6-yl)-1H-pyrazol-5-yl)-3-(3-phenoxyphenyl)urea] was run?
Answer: 4.5 nM

Question: With CC(C)(C)c1cc(NC(=O)Nc2cc(F)cc(F)c2)n(-c2ccc3c(c2)CCC(=O)N3)n1 [Example 326, 1-(3-t-butyl-1-(2-oxo-1,2,3,4-tetrahydro-quinolin-6-yl)-1H-pyrazol-5-yl)-3-(3,5-difluorophenyl)urea] as the molecule, how does the IC50 read?
Answer: 17 nM

Question: Which IC50 does the source give for CC(C)(C)c1cc(NC(=O)NC2CCCCC2)n(-c2ccc3c(c2)CNCC3)n1 [Example 327, 1-(3-t-butyl-1-(1,2,3,4-tetrahydroisoquinolin-7-yl)-1H-pyrazol-5-yl)-3-cyclohexylurea] here?
Answer: 330 nM

Question: How did the IC50 turn out when CC(C)(C)c1cc(NC(=O)Nc2cccc(F)c2F)n(-c2ccc3c(c2)CCN(S(C)(=O)=O)C3)n1 [Example 328, 1-(3-t-butyl-1-(2-(methylsulfonyl)-1,2,3,4-tetrahydroisoquinolin-6-yl)-1H-pyrazol-5-yl)-3-(2,3-difluorophenyl)urea] was run?
Answer: 25 nM

Question: CC(C)(C)c1cc(NC(=O)Nc2cccc(F)c2F)n(-c2ccc3[nH]c(=O)ccc3c2)n1 [Example 329, 1-(3-t-butyl-1-(2-oxo-1,2-dihydroquinolin-6-yl)-1H-pyrazol-5-yl)-3-(2,3-difluorophenyl)urea] was tested. Which IC50 did it give?
Answer: 4.2 nM

Question: For CC(C)(C)c1cc(NC(=O)Nc2cc(F)cc(F)c2F)n(-c2ccc3[nH]c(=O)ccc3c2)n1 [Example 331], which IC50 is on record?
Answer: 3.4 nM

Question: For CC(C)(C)c1cc(NC(=O)Nc2ccc(F)cc2F)n(-c2ccc3[nH]c(=O)ccc3c2)n1 [Example 332, 1-(3-t-butyl-1-(2-oxo-1,2-dihydroquinolin-6-yl)-1H-pyrazol-5-yl)-3-(2,4-difluorophenyl)urea], which IC50 is on record?
Answer: 4.4 nM

Question: For CC(C)(C)c1cc(NC(=O)Nc2cccc(F)c2)n(-c2ccc3c(c2)CCNCC3)n1 [Example 335, 1-(3-t-butyl-1-(2,3,4,5-tetrahydro-1H-benzo[d]azepin-7-yl)-1 H-pyrazol-5-yl)-3-(3-fluorophenyl)urea], which IC50 is on record?
Answer: 104 nM

Question: How did the IC50 turn out when CC(C)(C)c1cc(NC(=O)Nc2ccc(F)cc2F)n(-c2cccc(CC(=O)O)c2)n1 [Example 369, 2-(3-(3-t-butyl-5-(3-(2,4-difluorophenyl)-ureido)-1H-pyrazol-1-yl)phenyl)acetic acid] was run?
Answer: 15 nM

Question: With CC(C)(C)c1cc(NC(=O)Nc2cc(F)c(F)cc2F)n(-c2cccc(CC(=O)O)c2)n1 [Example 370, 2-(3-(3-t-butyl-5-(3-(2,4,5-trifluorophenyl)-ureido)-1H-pyrazol-1-yl)phenyl)acetic acid] as the molecule, how does the IC50 read?
Answer: 8 nM

Question: How did the IC50 turn out when CC(C)(C)c1cc(NC(=O)Nc2ccccc2F)n(-c2cccc(CC(=O)O)c2)n1 [Example 371, 2-(3-(3-t-butyl-5-(3-(2-fluorophenyl)-ureido)-1H-pyrazol-1-yl)phenyl)acetic acid] was run?
Answer: 10 nM

Question: For CC(C)(C)c1cc(NC(=O)Nc2ccc3c(c2)OCO3)n(-c2cccc(CC(=O)O)c2)n1 [Example 372, 2-(3-{5-[3-(benzo[1,3]dioxol-5-yl)ureido]-3-t-butyl-1H-pyrazol-1-yl}phenyl)acetic acid], which IC50 is on record?
Answer: 27 nM

Question: Which IC50 does the source give for CC(C)(C)c1cc(NC(=O)NC2CCCCC2)n(-c2cccc(CC(N)=O)c2)n1 [Example 391, 1-{1-[3-(2-amino-2-oxoethyl)phenyl]-3-t-butyl-1H-pyrazol-5-yl}-3-cyclohexylurea] here?
Answer: 37 nM

Question: C[C@H](NC(=O)Nc1cc(C(C)(C)C)nn1-c1cccc(CC(N)=O)c1)c1ccccc1 [Example 392, 1-{1-[3-(2-amino-2-oxoethyl)phenyl]-3-t-butyl-1H-pyrazol-5-yl}-3-((S)-1-phenylethyl)urea] was tested. Which IC50 did it give?
Answer: 221 nM

Question: CC(C)(C)c1cc(NC(=O)Nc2ccccc2F)n(-c2cccc(CC(N)=O)c2)n1 [Example 393, 1-{1-[3-(2-amino-2-oxoethyl)phenyl]-3-t-butyl-1H-pyrazol-5-yl}-3-(2-fluorophenyl)urea] was tested. Which IC50 did it give?
Answer: 20 nM

Question: CC(C)(C)c1cc(NC(=O)Nc2ccc3c(c2)OCO3)n(-c2cccc(CC(N)=O)c2)n1 [Example 395, 1-{1-[3-(2-amino-2-oxoethyl)phenyl]-3-t-butyl-1H-pyrazol-5-yl}-3-(benzo[d][1,3]dioxol-5-yl)urea] was tested. Which IC50 did it give?
Answer: 50 nM

Question: How did the IC50 turn out when CC(C)(C)c1cc(NC(=O)Nc2cccc(Oc3ccccc3)c2)n(-c2cccc(CC(N)=O)c2)n1 [Example 433, 1-(1-(3-(2-amino-2-oxoethyl)phenyl)-3-t-butyl-1H-pyrazol-5-yl)-3-(3-phenoxyphenyl)urea] was run?
Answer: 5.1 nM

Question: For CC(C)(C)c1cc(NC(=O)Nc2ccc(F)c(F)c2)n(-c2cccc(CC(N)=O)c2)n1 [Example 436, 1-(1-(3-(2-amino-2-oxoethyl)phenyl)-3-t-butyl-1H-pyrazol-5-yl)-3-(3,4-difluorophenyl)urea], which IC50 is on record?
Answer: 18 nM

Question: How did the IC50 turn out when CC(C)NC(=O)Cc1cccc(-n2nc(C(C)(C)C)cc2NC(=O)Nc2cccc(Cl)c2Cl)c1 [Example 441, 1-(3-t-butyl-1-(3-(2-(isopropylamino)-2-oxoethyl)phenyl)-1H-pyrazol-5-yl)-3-(2,3-dichlorophenyl)urea] was run?
Answer: 6.4 nM

Question: With CC(C)(C)c1cc(NC(=O)Nc2cccc(Cl)c2Cl)n(-c2cccc(CC(=O)N3CC[C@@H](O)C3)c2)n1 [Example 443, 1-(3-t-butyl-1-(3-(2-((R)-3-hydroxypyrrolidin-1-yl)-2-oxoethyl)phenyl)-1H-pyrazol-5-yl)-3-(2,3-dichlorophenyl)urea] as the molecule, how does the IC50 read?
Answer: 9 nM

Question: CC(C)(C)c1cc(NC(=O)Nc2cccc(Cl)c2Cl)n(-c2ccc(CC(N)=O)cc2)n1 [Example 492, 1-(1-(4-(2-amino-2-oxoethyl)phenyl)-3-t-butyl-1H-pyrazol-5-yl)-3-(2,3-dichlorophenyl)urea] was tested. Which IC50 did it give?
Answer: 6.4 nM

Same assay, conditions: Method B1; read-out: B-Raf Data

Question: For O=C(O)Cc1cccc(-n2nc(-c3cccs3)cc2NC(=O)Nc2cccc(Cl)c2Cl)c1 [Example 366, 2-(3-(5-(3-(2,3-dichlorophenyl)-ureido)-3-(thiophen-2-yl)-1H-pyrazol-1-yl)phenyl)acetic acid], which IC50 is on record?
Answer: 157 nM

Question: Which IC50 does the source give for O=C(O)Cc1cccc(-n2nc(C3CCCC3)cc2NC(=O)Nc2cccc(Cl)c2Cl)c1 [Example 368, 2-(3-(3-cyclopentyl-5-(3-(2,3-dichlorophenyl)-ureido)-1H-pyrazol-1-yl)phenyl)acetic acid] here?
Answer: 6.2 nM

Question: Which IC50 does the source give for CC(C)(C)c1cc(NC(=O)Nc2cccc(F)c2F)n(-c2cccc(CC(N)=O)c2)n1 [Example 394, 1-{1-[3-(2-amino-2-oxoethyl)phenyl]-3-t-butyl-1H-pyrazol-5-yl}-3-(2,3-difluorophenyl)urea] here?
Answer: 8.8 nM

Question: How did the IC50 turn out when CC(C)(C)c1cc(NC(=O)Nc2cc(F)c(F)cc2F)n(-c2cccc(CC(N)=O)c2)n1 [Example 434, 1-(1-(3-(2-amino-2-oxoethyl)phenyl)-3-t-butyl-1H-pyrazol-5-yl)-3-(2,4,5-trifluorophenyl)urea] was run?
Answer: 6.7 nM

Question: CC(C)(C)c1cc(NC(=O)Nc2ccc(F)c(F)c2F)n(-c2cccc(CC(N)=O)c2)n1 [Example 435, 1-(1-(3-(2-amino-2-oxoethyl)phenyl)-3-t-butyl-1H-pyrazol 5-yl)-3-(2,3,4-trifluorophenyl)urea] was tested. Which IC50 did it give?
Answer: 7.3 nM

Question: Which IC50 does the source give for CC(C)(C)c1cc(NC(=O)Nc2cccc(-c3cnccn3)c2)n(-c2cccc(CC(N)=O)c2)n1 [Example 437, 1-(1-(3-(2-amino-2-oxoethyl)phenyl)-3-t-butyl-1H-pyrazol-5-yl)-3-(3-(pyrazin-2-yl)phenyl)urea] here?
Answer: 279 nM

Question: Which IC50 does the source give for NC(=O)Cc1cccc(-n2nc(-c3cccs3)cc2NC(=O)Nc2cccc(Cl)c2Cl)c1 [Example 445, 1-(1-(3-(2-amino-2-oxoethyl)phenyl)-3-(thiophen-2-yl)-1H-pyrazol-5-yl)-3-(2,3-dichlorophenyl)urea] here?
Answer: 838 nM

Molecular target: phosphorylated p-38-alpha kinase (Homo sapiens, UniProt Q16539)
Sequence (Q16539 1-360 isoform Q16539-2): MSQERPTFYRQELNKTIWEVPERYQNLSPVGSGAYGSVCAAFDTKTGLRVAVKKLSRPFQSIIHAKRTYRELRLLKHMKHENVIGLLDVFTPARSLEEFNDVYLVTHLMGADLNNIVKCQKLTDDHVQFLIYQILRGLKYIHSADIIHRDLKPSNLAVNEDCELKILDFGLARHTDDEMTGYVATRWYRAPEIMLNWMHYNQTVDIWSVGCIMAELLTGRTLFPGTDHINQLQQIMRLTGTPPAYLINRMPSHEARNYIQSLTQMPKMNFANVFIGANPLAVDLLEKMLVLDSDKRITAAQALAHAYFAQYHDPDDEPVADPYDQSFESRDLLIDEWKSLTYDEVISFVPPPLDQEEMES
Assay: P-38 alpha kinase assay P1 (coupled spectrophotometric, 2 h pre-incubation)
Format: biochemical
Conditions: method P1 (2 h pre-incubation); read-out: P-38 Data

Question: With CC(C)(C)c1cc(NC(=O)Nc2ccc(Cl)cc2)n(-c2cccc(CO)c2)n1 [Example 224] as the molecule, how does the IC50 read?
Answer: 38 nM

Question: O=C(O)Cc1cccc(-n2nc(-c3nccs3)cc2NC(=O)Nc2cccc(Cl)c2Cl)c1 [Example 359, 2-(3-(5-(3-(2,3-dichlorophenyl)ureido)-3-(thiazol-2-yl)-1H-pyrazol-1-yl)phenyl)acetic acid] was tested. Which IC50 did it give?
Answer: 70 nM

Question: With O=C(O)Cc1cccc(-n2nc(-c3ccccc3F)cc2NC(=O)N[C@H]2CCc3ccccc32)c1 [Example 360, 2-(3-(5-(3-((S)-2,3-dihydro-1H-inden-1-yl)ureido)-3-(2-fluorophenyl)-1H-pyrazol-1-yl)phenyl)acetic acid] as the molecule, how does the IC50 read?
Answer: 20 nM
